Literature values, collected in patent US20100120727A1, “Eflornithine Prodrugs, Conjugates and Salts, and Methods of Use Thereof” (Kyphia Pharmaceuticals, Inc., priority 2008, published 2010).
Where two headings read alike, the source gives them in different places. Values belong to the compound of their own block, whether it stands above or below them.

How the values were obtained:
[1] = test system: tumor putrescine levels; settings: DFMO infusion
[2] = test system: MCA sarcoma; settings: in vivo
[3] = test system: COX
[4] = not given; remark: listed apart in the source
[5] = not given; remark: listed apart in the source

Compound: NCCCC(N)(C(=O)O)C(F)F (racemic) [DFMO, 2-(Difluoromethyl)-DL-ornithine]
decrease in tumor putrescine levels [1]: 90%
tumor growth rate and regression [2]: reduces the growth rate of an MCA sarcoma but does not produce tumor regression

solubility in water: very low solubility in water
Compound: CC(=O)Oc1ccccc1C(=O)O [Aspirin, acetylsalicylic acid]

Compound: CC1=C(CC(=O)O)c2cc(F)ccc2/C1=C\c1ccc(S(C)(=O)=O)cc1 [Sulindac sulfone]
COX-inhibitory activity [3]: lacks COX-inhibitory activity

time to peak plasma levels ([4]; administered with food): 3 to 4 h
fraction of the drug absorbed ([4]; after oral administration): about 90%
time to peak plasma levels ([4]; fasting patients): about 2 hours
mild gastrointestinal effects, share of patients ([5]; abdominal pain and nausea most frequent): ~20%
skin rash and pruritus, share of patients ([5]; human, in vivo): 5%
Compound: CC1=C(CC(=O)O)c2cc(F)ccc2/C1=C\c1ccc([S+](C)[O-])cc1 (stereo not shown) [Sulindac, (Z)-5-Fluoro-2-methyl-1-((4 (methylsulfinyl)phenyl)methylene)1H-indene-3-acetic acid]

mean half-life ([4]; in vivo): 16.4 h
Compound: CSc1ccc(/C=C2/C(C)=C(CC(=O)O)c3cc(F)ccc32)cc1 [sulfide metabolite]
